Patent publication US20100204182A1, “ECTONUCLEOTIDASE INHIBITORS” (RHEINISCHE FRIEDRICH-WILHELMS-UNIVERSITAT BONN, priority 2006, published 2010)
Read-outs that look alike come from different tables or passages of the source. Values belong to the compound of their own block, whether it stands above or below them.

Key:
[1] = target: T1, human NTPDase1 (Homo sapiens, UniProt P49961); test: NTPDase inhibition assay by capillary electrophoresis (CE), NTPDase1; type: biochemical; conditions: ATP 320 μM; for inhibition at 1000 µM: 1 mM compound; for Ki: CE method, Km 17 μM, read-out: NTPDase1 Ki [μM] ± SEM
T1 sequence (P49961 1-510): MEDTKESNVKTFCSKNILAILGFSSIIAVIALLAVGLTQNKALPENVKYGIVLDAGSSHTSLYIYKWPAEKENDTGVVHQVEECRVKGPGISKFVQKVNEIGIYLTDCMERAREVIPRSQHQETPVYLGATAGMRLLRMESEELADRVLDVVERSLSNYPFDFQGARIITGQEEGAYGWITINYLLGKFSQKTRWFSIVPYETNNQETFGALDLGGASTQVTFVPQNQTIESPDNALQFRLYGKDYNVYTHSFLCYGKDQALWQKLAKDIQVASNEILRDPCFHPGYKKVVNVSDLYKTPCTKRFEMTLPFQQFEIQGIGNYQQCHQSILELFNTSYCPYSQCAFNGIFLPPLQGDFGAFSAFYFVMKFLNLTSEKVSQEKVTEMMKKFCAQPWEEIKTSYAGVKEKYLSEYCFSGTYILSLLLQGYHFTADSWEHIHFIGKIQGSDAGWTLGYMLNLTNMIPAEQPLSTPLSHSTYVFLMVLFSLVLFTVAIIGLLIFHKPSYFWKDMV
Description: (§1) The applied enzyme inhibition assay has been described (Iqbal J, Vollmayer P, Braun N, Zimmermann H, Müller C E. A capillary electrophoresis method for the characterization of ecto-nucleoside triphosphate diphosphohydrolases (NTPDases) and the analysis of inhibitors by in-capillary enzymatic microreaction. Purinergic Signalling 2005, 1, 349-358).
(§2) A. CE instrumentation: All experiments were carried out using a P/ACE MDQ capillary electrophoresis system (Beckman Instruments, Fullerton, Calif., USA) equipped with a UV detection system coupled with a diode-array detector (DAD). Data collection and peak area analysis were performed by the P/ACE MDQ software 32 KARAT obtained from Beckman Coulter. The capillary temperature was kept constant at 25° C. The temperature of the sample storing unit was also adjusted to 25° C. The electrophoretic separations were carried out using an eCAP polyacrylamide-coated fused-silica capillary [(30 cm (20 cm effective length)×50 μm internal diameter (I.D.)×360 μm outside diameter (O.D.), obtained from CS-Chromatographie (Langerwehe, Germany)]. The separation was performed using an applied current of −60 μA and a data acquisition rate of 8 Hz. Analytes were detected using direct UV absorbance at 210 nm. The capillary was conditioned by rinsing with water for 2 min and subsequently with buffer (phosphate 50 mM, pH 6.5) for 1 min. Sample injections were made at the cathodic side of the capillary.
(§3) B. NTPDase inhibition assay by capillary electrophoresis: Enzyme inhibition assays were carried out at 37° C. in a final volume of 100 μl. The reaction mixture contained 320 μM of ATP (substrate) in reaction buffer. The reaction buffer contained 140 mM NaCl, 5 mM KCl, 1 mM MgCl2, 2 mM CaCl2, and 10 mM Hepes, pH 7.4.
(§4) Different concentrations of inhibitors dissolved in DMSO or water (10 μl) were added and the reaction was initiated by the addition of 10 μl of the appropriately diluted recombinant or native human or rat NTPDase enzyme. […] The mixture (final volume 100 μl) was incubated for 15 min and terminated by heating at 99° C. for 4 min. Aliquots of the reaction mixture (50 μl) were then transferred to mini-CE vials and injected into the CE instrument under the conditions described above. 20 μM of UMP was used as internal standard. Inhibition of NTPDase was tested over a range of 6 to 8 concentrations of test compound spanning 3 orders of magnitude to determine K1 values. Each analysis was repeated two times (in triplicates) in two separate experiments. The Cheng-Prusoff equation was used to calculate the K1 values from the IC50 values, determined by the non-linear curve fitting program PRISM® 3.0 (GraphPad, San Diego, Calif., USA). In table 1K, values of selected compounds as inhibitors of human NTPDases are given.

[2] = target: T2, human NTPDase2 (Homo sapiens, UniProt Q9Y5L3); test: NTPDase inhibition assay by capillary electrophoresis (CE), NTPDase2; type: biochemical; conditions: for inhibition at 1000 µM: read-out: NTPDase2 inhibition (%) at 1 mM
T2 sequence (Q9Y5L3 1-495): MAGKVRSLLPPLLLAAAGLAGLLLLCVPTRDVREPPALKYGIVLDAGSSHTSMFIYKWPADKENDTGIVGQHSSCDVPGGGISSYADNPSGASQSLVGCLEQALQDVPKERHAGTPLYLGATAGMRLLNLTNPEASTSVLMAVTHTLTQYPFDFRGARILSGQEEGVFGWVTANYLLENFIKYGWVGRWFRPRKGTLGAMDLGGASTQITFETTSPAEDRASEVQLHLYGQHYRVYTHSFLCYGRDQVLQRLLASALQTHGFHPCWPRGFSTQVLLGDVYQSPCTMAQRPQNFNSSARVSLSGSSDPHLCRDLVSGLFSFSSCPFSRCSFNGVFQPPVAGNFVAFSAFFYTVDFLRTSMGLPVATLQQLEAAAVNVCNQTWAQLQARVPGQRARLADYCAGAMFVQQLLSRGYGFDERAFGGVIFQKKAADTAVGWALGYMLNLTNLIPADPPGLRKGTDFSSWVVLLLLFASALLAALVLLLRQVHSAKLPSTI

[3] = target: rP2Y6 (Rattus norvegicus, UniProt Q63371); test: Inhibition of UDP binding at rP2Y6; conditions: read-out: rP2Y6 % inhibition of UDP binding at 100 μM, n = 3, mean ± SEM
rP2Y6, sequence (Q63371 whole entry): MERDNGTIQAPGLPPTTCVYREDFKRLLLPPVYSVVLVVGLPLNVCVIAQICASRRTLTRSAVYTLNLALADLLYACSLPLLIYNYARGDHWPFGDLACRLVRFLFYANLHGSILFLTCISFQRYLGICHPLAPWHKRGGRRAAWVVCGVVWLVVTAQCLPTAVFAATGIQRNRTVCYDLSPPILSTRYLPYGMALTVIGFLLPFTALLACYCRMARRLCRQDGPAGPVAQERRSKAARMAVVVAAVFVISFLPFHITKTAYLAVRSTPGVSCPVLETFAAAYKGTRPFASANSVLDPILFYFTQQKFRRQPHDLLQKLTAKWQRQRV

[4] = target: T3, human NTPDase3 (Homo sapiens, UniProt O75355); test: NTPDase inhibition assay by capillary electrophoresis (CE), NTPDase3; type: biochemical; conditions: ATP 320 μM; for inhibition at 1000 µM: 1 mM compound; for Ki: CE method, Km 75 μM, read-out: NTPDase3 Ki [μM] ± SEM
T3 sequence (O75355 1-529): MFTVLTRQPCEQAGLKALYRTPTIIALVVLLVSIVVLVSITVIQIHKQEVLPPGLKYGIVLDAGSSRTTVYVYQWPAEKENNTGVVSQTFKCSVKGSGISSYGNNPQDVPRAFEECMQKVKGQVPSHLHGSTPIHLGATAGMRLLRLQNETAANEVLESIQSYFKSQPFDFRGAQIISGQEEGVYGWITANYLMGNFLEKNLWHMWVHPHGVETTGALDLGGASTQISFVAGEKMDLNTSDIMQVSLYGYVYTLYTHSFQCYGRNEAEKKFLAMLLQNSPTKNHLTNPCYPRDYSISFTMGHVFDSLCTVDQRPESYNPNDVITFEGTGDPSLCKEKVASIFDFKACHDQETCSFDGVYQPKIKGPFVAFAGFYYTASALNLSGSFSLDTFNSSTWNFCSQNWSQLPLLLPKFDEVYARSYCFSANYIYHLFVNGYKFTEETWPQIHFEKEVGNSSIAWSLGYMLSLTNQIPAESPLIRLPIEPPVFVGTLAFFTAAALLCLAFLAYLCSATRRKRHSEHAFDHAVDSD
Description: as §1, §2, §3, §4

[5] = target: T4, human NTPDase8 (Homo sapiens, UniProt Q5MY95); test: NTPDase inhibition assay by capillary electrophoresis (CE), NTPDase8; type: biochemical; conditions: for inhibition at 1000 µM: human NTPDase8, 1 mM compound, ATP 320 μM; for Ki: read-out: NTPDase8 Ki [μM] ± SEM
T4 sequence (Q5MY95 1-495): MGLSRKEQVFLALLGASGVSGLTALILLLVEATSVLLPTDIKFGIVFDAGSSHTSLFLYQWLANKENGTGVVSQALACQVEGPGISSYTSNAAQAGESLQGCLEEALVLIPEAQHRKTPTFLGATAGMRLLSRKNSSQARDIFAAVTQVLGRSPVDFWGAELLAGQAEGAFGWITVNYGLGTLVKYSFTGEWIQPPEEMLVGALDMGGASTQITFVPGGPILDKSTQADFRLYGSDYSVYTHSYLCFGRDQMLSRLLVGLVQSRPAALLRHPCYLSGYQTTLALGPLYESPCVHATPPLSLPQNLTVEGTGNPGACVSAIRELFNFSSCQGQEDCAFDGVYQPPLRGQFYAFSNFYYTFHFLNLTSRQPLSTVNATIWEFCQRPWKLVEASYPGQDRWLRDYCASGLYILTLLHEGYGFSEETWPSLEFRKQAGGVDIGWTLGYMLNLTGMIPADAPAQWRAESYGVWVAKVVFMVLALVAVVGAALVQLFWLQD
Description: as §1, §2, §3, §4

[6] = target: hP2Y12 (Homo sapiens, UniProt Q9H244); test: Inhibition of [3H]PSB-0413 binding at hP2Y12; conditions: mean ± SEM, read-out: hP2Y12 % Inhibition of [^3H]PSB-0413 Binding at 10 μM, n = 3
hP2Y12, sequence (Q9H244 whole entry): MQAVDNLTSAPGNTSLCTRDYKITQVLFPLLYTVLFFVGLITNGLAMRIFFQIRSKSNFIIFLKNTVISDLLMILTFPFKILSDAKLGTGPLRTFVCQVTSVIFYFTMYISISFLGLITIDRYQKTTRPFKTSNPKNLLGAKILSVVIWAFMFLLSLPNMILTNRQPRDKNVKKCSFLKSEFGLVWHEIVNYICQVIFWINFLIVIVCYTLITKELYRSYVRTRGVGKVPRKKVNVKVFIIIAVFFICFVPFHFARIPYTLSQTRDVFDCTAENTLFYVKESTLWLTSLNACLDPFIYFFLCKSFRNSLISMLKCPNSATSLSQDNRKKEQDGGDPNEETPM
Description: In table 2 inhibition data of selected examples at human P2Y receptor subtypes were collected. It can be seen that no compound was identified that inhibited P2Y receptors at high concentrations of 100 μM and 10 μM, respectively.

[7] = human NTPDase2, CE method, ATP 320 μM, Km 70 μM, read-out: NTPDase2 Ki [μM] ± SEM

SMILES: CCOP(=O)(OCC)C(NC(=O)CCCNC(=O)[C@H]1O[C@@H](n2cnc3c(N)ncnc32)C(O)C1O)P(=O)(OCC)OCC (stereo in doubt) [CC5, 4-[(2S,3R,4S,5R)-5-(6-Amino-9H-purin-9-yl)-3,4-dihydroxy-tetrahydrofurane-2-carboxamido]butaneamidomethylenediphosphonic acid tetraethylester]
inhibition at 1000 µM [1]: 0%
Ki [1]: > 50 µM
Ki [2]: > 200 µM
inhibition at 1000 µM [2]: 0%
inhibition at 100 µM [3]: -5 ± 2%

SMILES: CCOP(=O)(Cc1ccc(NC(=O)CCCNC(=O)[C@H]2O[C@@H](n3cnc4c(N)ncnc43)C(O)C2O)cc1)OCC (stereo in doubt) [CC3, 4-[4-((2S,3R,4S,5R)-5-(6-Amino-9H-purin-9-yl)-3,4-dihydroxy-tetrahydro-furane-2-carboxamido)butaneamido]benzylphosphonic acid diethylester]
Ki [1]: 161 ± 24 µM
Ki [2, 7]: 213 ± 34 µM
inhibition at 1000 µM [4]: 0%
Ki [4]: > 200 µM
inhibition at 1000 µM [5]: 0%
Ki [5]: > 100 µM
inhibition at 10 µM [6]: 5 ± 1%

SMILES: CCOP(=O)(CNC(=O)CNC(=O)[C@H]1O[C@@H](n2ccc(=O)[nH]c2=O)C(O)C1O)OCC (stereo in doubt) [Compound 5, 2-[(2S,3R,4S,5R)-5-(2,4-Dioxo-3,4-dihydropyrimidin-1(2H)-yl)-3,4-dihydroxy-tetrahydrofurane-2-carboxamido]ethaneamidomethylphosphonic acid diethylester]
Ki [1]: 786 ± 33 µM
Ki [2, 7]: 71.7 ± 13.5 µM
inhibition at 1000 µM [4]: 0%
Ki [4]: > 200 µM
inhibition at 1000 µM [5]: 0%
Ki [5]: > 100 µM
inhibition at 100 µM [3]: 17 ± 16%
inhibition at 10 µM [6]: 31 ± 1%

SMILES: CCOP(=O)(Cc1ccc(NC(=O)CNC(=O)[C@H]2O[C@@H](n3cnc4c(N)ncnc43)C(O)C2O)cc1)OCC (stereo in doubt) [CC1, 4-[2-((2S,3R,4S,5R)-5-(6-Amino-9H-purin-9-yl)-3,4-dihydroxy-tetrahydro-furane-2-carboxamido)ethaneamido]benzylphosphonic acid diethylester]
inhibition at 1000 µM [1]: 0%
Ki [1]: > 50 µM
Ki [2]: > 200 µM
inhibition at 1000 µM [2]: 0%
inhibition at 1000 µM [4]: 0%
Ki [4]: > 200 µM
inhibition at 1000 µM [5]: 0%
Ki [5]: > 100 µM
inhibition at 10 µM [6]: -4 ± 6%

SMILES: CCOP(=O)(Cc1ccc(NC(=O)CCNC(=O)[C@H]2O[C@@H](n3cnc4c(N)ncnc43)C(O)C2O)cc1)OCC (stereo in doubt) [CC2, 4-[3-((2S,3R,4S,5R)-5-(6-Amino-9H-purin-9-yl)-3,4-dihydroxy-tetrahydro-furane-2-carboxamido)propaneamido]benzylphosphonic acid diethylester]
Ki [1]: 154 ± 37 µM
Ki [2, 7]: 1440 ± 64 µM
inhibition at 1000 µM [4]: 0%
Ki [4]: > 200 µM
Ki [5]: 255 ± 25.3 µM
inhibition at 10 µM [6]: 1 ± 6%

NTPDase2 inhibition (%) at 1 mM ([2]; human NTPDase2, 1 mM compound, ATP 320 μM): 54%
Ki [2, 7]: ~165 µM
SMILES: CCOP(=O)(CC(=O)OCCNC(=O)CNC(=O)[C@H]1O[C@@H](n2ccc(=O)[nH]c2=O)[C@@H](O)[C@H]1O)OCC [Compound 9, 2-[(2S,3R,4S,5R)-5-(2,4-Dioxo-3,4-dihydropyrimidin-1(2H)-yl)-3,4-dihydroxy-tetrahydro-furane-2-carboxamido]ethaneamido-ethyloxycarbonyl methylenephosphonic acid diethylester]

SMILES: CCOP(=O)(OCC)C(NC(=O)CCNC(=O)[C@H]1O[C@@H](n2cnc3c(N)ncnc32)C(O)C1O)P(=O)(OCC)OCC (stereo in doubt) [CC4, 3-[(2S,3R,4S,5R)-5-(6-Amino-9H-purin-9-yl)-3,4-dihydroxy-tetrahydrofurane-2-carboxamido]propaneamidomethylenediphosphonic acid tetraethylester]
inhibition at 1000 µM [1]: 0%
Ki [1]: > 50 µM
Ki [2]: > 200 µM
inhibition at 1000 µM [2]: 0%
inhibition at 100 µM [3]: 5 ± 8%

SMILES: CCOP(=O)(Cc1ccc(NC(=O)[C@H]2O[C@@H](n3ccc(=O)[nH]c3=O)C(O)C2O)cc1)OCC (stereo in doubt) [Compound 1, 4-[(2S,3R,4S,5R)-5-(2,4-Dioxo-3,4-dihydropyrimidin-1(2H)-yl)-3,4-dihydroxy-tetrahydrofurane-2-carboxamido]benzylphosphonic acid diethylester]
Ki [2]: 117 ± 15 µM
inhibition at 100 µM [3]: -12 ± 3%
